Measurements as given in patent publication US20250282794A1 (CURADEV PHARMA LTD, priority 2022, published 2025).

biological target: recombinant full length HPK-1 enzyme (Homo sapiens (Human), UniProt Q92918); test: HPK-1 biochemical enzyme assay (ADP-Glo kinase inhibition); conditions: recombinant full length HPK-1 6.8 nM, 10 μM ATP, 12.5 μM MBP, 30 mins at 25° C.
Method in brief: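 Recombinant full-length human HPK-1 (6.8 nM) incubated 30 min at 25° C. with 10 μM ATP and 12.5 μM swine MBP in 40 mM Tris pH 7.4, 20 mM MgCl2, 50 μM DTT, 0.1 mg/mL BSA. ADP measured by ADP-Glo; IC50 from 10 concentrations, normalized to no-enzyme and vehicle controls.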

Chain of recombinant full length HPK-1 enzyme (Q92918 whole entry, species assumed): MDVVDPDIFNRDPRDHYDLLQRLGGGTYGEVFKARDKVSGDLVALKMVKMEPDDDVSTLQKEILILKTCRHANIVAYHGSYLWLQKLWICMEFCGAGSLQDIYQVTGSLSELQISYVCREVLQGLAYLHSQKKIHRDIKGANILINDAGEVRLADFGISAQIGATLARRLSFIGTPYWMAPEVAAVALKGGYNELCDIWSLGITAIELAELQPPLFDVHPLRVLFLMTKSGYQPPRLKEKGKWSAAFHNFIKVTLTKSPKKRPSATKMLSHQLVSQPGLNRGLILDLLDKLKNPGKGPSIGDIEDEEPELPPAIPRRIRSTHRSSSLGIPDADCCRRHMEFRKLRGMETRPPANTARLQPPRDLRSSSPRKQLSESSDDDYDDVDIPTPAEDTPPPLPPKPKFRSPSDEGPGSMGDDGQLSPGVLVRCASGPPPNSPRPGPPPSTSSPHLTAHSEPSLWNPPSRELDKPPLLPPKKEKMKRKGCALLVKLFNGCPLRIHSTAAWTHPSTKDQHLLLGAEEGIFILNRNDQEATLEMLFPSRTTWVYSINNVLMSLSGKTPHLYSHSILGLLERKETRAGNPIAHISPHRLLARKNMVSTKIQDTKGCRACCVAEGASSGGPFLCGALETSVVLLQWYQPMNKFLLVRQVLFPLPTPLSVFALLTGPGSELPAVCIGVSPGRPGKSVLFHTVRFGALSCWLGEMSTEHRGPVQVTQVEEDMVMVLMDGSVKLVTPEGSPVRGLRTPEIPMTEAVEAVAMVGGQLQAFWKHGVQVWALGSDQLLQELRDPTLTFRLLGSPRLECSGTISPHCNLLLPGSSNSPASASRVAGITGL

Row | Compound | IC50
1 | Cc1c(Nc2cc[nH]c(=O)c2C(=O)Nc2ccc(N3CCC(C(C)(C)O)CC3)cc2)cnc2c1NCCO2 [Example 300, N-(4-(4-(2-hydroxypropan-2-yl)piperidin-1-yl)phenyl)-4-((8-methyl-2,3-dihydro-1H-pyrido[2,3-b][1,4]oxazin-7-yl)amino)-2-oxo-1,2-dihydropyridine-3-carboxamide] | ≤ 10 nM
2 | COCC(=O)N1CCN(c2ccc(NC(=O)c3c(Nc4cnc5c(c4C)NCCO5)cc[nH]c3=O)cc2)CC1 [Example 284, N-(4-(4-(2-methoxyacetyl)piperazin-1-yl)phenyl)-4-((8-methyl-2,3-dihydro-1H-pyrido[2,3-b][1,4]oxazin-7-yl)amino)-2-oxo-1,2-dihydropyridine-3-carboxamide] | ≤ 10 nM
3 | CNc1cc(NC(=O)c2c(Nc3cnc4c(c3C)NCCO4)cc[nH]c2=O)ccc1N1CCN(C)CC1 [Example 295, 4-((8-methyl-2,3-dihydro-1H-pyrido[2,3-b][1,4]oxazin-7-yl)amino)-N-(3-(methylamino)-4-(4-methylpiperazin-1-yl)phenyl)-2-oxo-1,2-dihydropyridine-3-carboxamide] | 10 to 100 nM
4 | Cc1c(Nc2cc[nH]c(=O)c2C(=O)Nc2ccc(N3CCC(C(C)O)CC3)cc2)cnc2c1NCCO2 (stereo not shown) [Example 302, N-(4-(4-(1-hydroxyethyl)piperidin-1-yl)phenyl)-4-((8-methyl-2,3-dihydro-1H-pyrido[2,3-b][1,4]oxazin-7-yl)amino)-2-oxo-1,2-dihydropyridine-3-carboxamide] | ≤ 10 nM
5 | CCC(=O)N1CCN(c2ccc(NC(=O)c3c(Nc4cnc5c(c4C)NCCO5)cc[nH]c3=O)cc2)C[C@@H]1C [Example 345, (S)-4-((8-methyl-2,3-dihydro-1H-pyrido[2,3-b][1,4]oxazin-7-yl)amino)-N-(4-(3-methyl-4-propionylpiperazin-1-yl)phenyl)-2-oxo-1,2-dihydropyridine-3-carboxamide] | ≤ 10 nM
6 | Cc1c(Nc2cc[nH]c(=O)c2C(=O)Nc2ccc(N3CCN(C4CC4)CC3)c(F)c2)cnc2c1NCCO2 [Example 376, N-(4-(4-cyclopropylpiperazin-1-yl)-3-fluorophenyl)-4-((8-methyl-2,3-dihydro-1H-pyrido[2,3-b][1,4]oxazin-7-yl)amino)-2-oxo-1,2-dihydropyridine-3-carboxamide] | ≤ 10 nM
7 | CN1CCN(c2ccc(NC(=O)c3c(Nc4cnc5c(c4C#N)NCCO5)cc[nH]c3=O)cc2)CC1 [Example 299, 4-((8-cyano-2,3-dihydro-1H-pyrido[2,3-b][1,4]oxazin-7-yl)amino)-N-(4-(4-methylpiperazin-1-yl)phenyl)-2-oxo-1,2-dihydropyridine-3-carboxamide] | 10 to 100 nM
8 | Cc1c(Nc2cc[nH]c(=O)c2C(=O)Nc2ccc(N3CCN(C)CC3)cc2)cnc2c1NCCO2 [Example 45, 4-((8-Methyl-2,3-dihydro-1H-pyrido[2,3-b][1,4]oxazin-7-yl)amino)-N-(4-(4-methylpiperazin-1-yl)phenyl)-2-oxo-1,2-dihydropyridine-3-carboxamide] | ≤ 10 nM
9 | Cc1c(Nc2cc[nH]c(=O)c2C(=O)Nc2cccc(S(=O)(=O)CCO)c2)cnc2c1NCCO2 [Example 245, N-(3-((2-hydroxyethyl)sulfonyl)phenyl)-4-((8-methyl-2,3-dihydro-1H-pyrido[2,3-b][1,4]oxazin-7-yl)amino)-2-oxo-1,2-dihydropyridine-3-carboxamide] | 100 to 1000 nM
10 | Cc1c(Nc2cc[nH]c(=O)c2C(=O)Nc2ccc(CN3CCS(=O)(=O)CC3)cc2)cnc2c1NCCO2 [Example 232, N-(4-((1,1-dioxidothiomorpholino)methyl)phenyl)-4-((8-methyl-2,3-dihydro-1H-pyrido[2,3-b][1,4]oxazin-7-yl)amino)-2-oxo-1,2-dihydropyridine-3-carboxamide] | 10 to 100 nM
11 | Cc1c(Nc2cc[nH]c(=O)c2C(=O)Nc2ccc(N3CCC(N(C)C(=O)C(C)C)C3)cc2)cnc2c1NCCO2 (stereo not shown) [Example 381, 4-((8-methyl-2,3-dihydro-1H-pyrido[2,3-b][1,4]oxazin-7-yl)amino)-N-(4-(3-(N-methylisobutyramido)pyrrolidin-1-yl)phenyl)-2-oxo-1,2-dihydropyridine-3-carboxamide] | 10 to 100 nM
12 | Cc1c(Nc2cc[nH]c(=O)c2C(=O)Nc2ccc(N3CCN(C)CC3CO)cc2)cnc2c1NCCO2 (stereo not shown) [Example 408, N-(4-(2-(hydroxymethyl)-4-methylpiperazin-1-yl)phenyl)-4-((8-methyl-2,3-dihydro-1H-pyrido[2,3-b][1,4]oxazin-7-yl)amino)-2-oxo-1,2-dihydropyridine-3-carboxamide] | 10 to 100 nM

Now from value to molecule:

Row | IC50 | Compound
13 | ≤ 10 nM | Cc1c(Nc2cc[nH]c(=O)c2C(=O)Nc2ccc(N3CCN(C(=O)N4CC5(CCC5)C4)CC3)cc2)cnc2c1NCCO2 [Example 320, N-(4-(4-(2-azaspiro[3.3]heptane-2-carbonyl)piperazin-1-yl)phenyl)-4-((8-methyl-2,3-dihydro-1H-pyrido[2,3-b][1,4]oxazin-7-yl)amino)-2-oxo-1,2-dihydropyridine-3-carboxamide]
14 | 10 to 100 nM | Cc1c(Nc2cc[nH]c(=O)c2C(=O)Nc2ccc(N3CCN(c4ccn(C)n4)CC3)cc2)cnc2c1NCC(C)O2 (stereo not shown) [Example 407, 4-((3,8-dimethyl-2,3-dihydro-1H-pyrido[2,3-b][1,4]oxazin-7-yl)amino)-N-(4-(4-(1-methyl-1H-pyrazol-3-yl)piperazin-1-yl)phenyl)-2-oxo-1,2-dihydropyridine-3-carboxamide]
15 | ≤ 10 nM | Cc1c(Nc2cc[nH]c(=O)c2C(=O)Nc2ccc(N3CCN(CC4CCC(=O)N4)CC3)cc2)cnc2c1NCCO2 (stereo not shown) [Example 176, 4-((8-methyl-2,3-dihydro-1H-pyrido[2,3-b][1,4]oxazin-7-yl)amino)-2-oxo-N-(4-(4-((5-oxopyrrolidin-2-yl)methyl)piperazin-1-yl)phenyl)-1,2-dihydropyridine-3-carboxamide]
16 | 10 to 100 nM | Cc1c(Nc2cc[nH]c(=O)c2C(=O)Nc2ccc(N3CCN(CCF)CC3)c(F)c2)cnc2c1NCCO2 [Example 387, N-(3-fluoro-4-(4-(2-fluoroethyl)piperazin-1-yl)phenyl)-4-((8-methyl-2,3-dihydro-1H-pyrido[2,3-b][1,4]oxazin-7-yl)amino)-2-oxo-1,2-dihydropyridine-3-carboxamide]
17 | ≤ 10 nM | CCC(C)C(=O)N1CCN(c2ccc(NC(=O)c3c(Nc4cnc5c(c4C)NCCO5)cc[nH]c3=O)cc2)CC1 (stereo not shown) [Example 333, 4-((8-methyl-2,3-dihydro-1H-pyrido[2,3-b][1,4]oxazin-7-yl)amino)-N-(4-(4-(2-methylbutanoyl)piperazin-1-yl)phenyl)-2-oxo-1,2-dihydropyridine-3-carboxamide]
18 | ≤ 10 nM | COCCN1CCN(c2ccc(NC(=O)c3c(Nc4cnc5c(c4C)NCC(C)O5)cc[nH]c3=O)cc2)CC1 (stereo not shown) [Example 171, 4-((3,8-dimethyl-2,3-dihydro-1H-pyrido[2,3-b][1,4]oxazin-7-yl)amino)-N-(4-(4-(2-methoxyethyl)piperazin-1-yl)phenyl)-2-oxo-1,2-dihydropyridine-3-carboxamide]
19 | ≤ 10 nM | Cc1c(Nc2cc[nH]c(=O)c2C(=O)Nc2ccc(C3CCCN(C)C3)cc2)cnc2c1NCCO2 (stereo not shown) [Example 214, 4-((8-methyl-2,3-dihydro-1H-pyrido[2,3-b][1,4]oxazin-7-yl)amino)-N-(4-(1-methylpiperidin-3-yl)phenyl)-2-oxo-1,2-dihydropyridine-3-carboxamide]
